{"source": "patent WO2015077660A1", "about": "“Enzyme reactor system enabling enhanced enzymatic digestion, analyte solubility and improved mass spectrometric compatibility” (priority 2013, dated 2014)", "key": {"[1]": {"test_system": "trypsin", "assay": "Insulin digestion in immobilized enzyme reactor, buffer screening (Table 7)", "assay_type": "biochemical, porcine", "conditions": "IMER, 70°C, 60 s"}, "[2]": {"test_system": "T1, porcine trypsin", "T1 construct": "purchased", "assay": "Insulin digestion by trypsin in solution, buffer screening (Table 9)", "assay_type": "biochemical", "conditions": "37°C, 18 h"}}, "data": [{"smiles": "[Cl-].[Na+]", "note": "[NaCl]", "values": [{"measurement": "Digested", "setting": "[1]; 0.1M", "value": 2262987}, {"measurement": "Peptide", "setting": "[1]; 0.1M", "value": 925368}, {"measurement": "Undigested", "setting": "[1]; 0.1M", "value": 1557233}, {"measurement": "Digested", "setting": "[1]; 0.25M", "value": 2119184}, {"measurement": "Peptide", "setting": "[1]; 0.25M", "value": 866812}, {"measurement": "Undigested", "setting": "[1]; 0.25M", "value": 2102900}, {"measurement": "Digested", "setting": "[1]; 0.5M", "value": 2146822}, {"measurement": "Peptide", "setting": "[1]; 0.5M", "value": 862093}, {"measurement": "Undigested", "setting": "[1]; 0.5M", "value": 1679944}, {"measurement": "Digested", "setting": "[1]; 1M", "value": 2363025}, {"measurement": "Peptide", "setting": "[1]; 1M", "value": 944511}, {"measurement": "Undigested", "setting": "[1]; 1M", "value": 1205692}, {"measurement": "Digested", "setting": "[1]; 2M", "value": 2660004}, {"measurement": "Peptide", "setting": "[1]; 2M", "value": 966823}, {"measurement": "Undigested", "setting": "[1]; 2M", "value": 332026}, {"measurement": "Digested", "setting": "[2]; 0.1M", "value": 1527956}, {"measurement": "Peptide", "setting": "[2]; 0.1M", "value": 648564}, {"measurement": "Undigested", "setting": "[2]; 0.1M", "value": 3295178}, {"measurement": "Digested", "setting": "[2]; 0.25M", "value": 1178089}, {"measurement": "Peptide", "setting": "[2]; 0.25M", "value": 484049}, {"measurement": "Undigested", "setting": "[2]; 0.25M", "value": 3432057}, {"measurement": "Digested", "setting": "[2]; 0.5M", "value": 884946}, {"measurement": "Peptide", "setting": "[2]; 0.5M", "value": 350436}, {"measurement": "Undigested", "setting": "[2]; 0.5M", "value": 4517343}, {"measurement": "Digested", "setting": "[2]; 1M", "value": 670170}, {"measurement": "Peptide", "setting": "[2]; 1M", "value": 249834}, {"measurement": "Undigested", "setting": "[2]; 1M", "value": 4981512}, {"measurement": "Digested", "setting": "[2]; 2M", "value": 378641}, {"measurement": "Peptide", "setting": "[2]; 2M", "value": 111600}, {"measurement": "Undigested", "setting": "[2]; 2M", "value": 4745627}]}, {"smiles": "C[C@H](CCC(=O)[O-])[C@H]1CC[C@H]2[C@@H]3CC[C@@H]4C[C@H](O)CC[C@]4(C)[C@H]3C[C@H](O)[C@]12C.[Na+]", "note": "[SDC, sodium deoxycholate]", "values": [{"measurement": "Digested", "setting": "[1]; 0.1%", "value": 296346}, {"measurement": "Peptide", "setting": "[1]; 0.1%", "value": 101770}, {"measurement": "Undigested", "setting": "[1]; 0.1%", "value": 4216641}, {"measurement": "Digested", "setting": "[1]; 0.2%", "value": 94589}, {"measurement": "Peptide", "setting": "[1]; 0.2%", "value": 30902}, {"measurement": "Undigested", "setting": "[1]; 0.2%", "value": 5010947}, {"measurement": "Digested", "setting": "[1]; 0.5%", "value": 12088}, {"measurement": "Peptide", "setting": "[1]; 0.5%", "value": 1351}, {"measurement": "Undigested", "setting": "[1]; 0.5%", "value": 1648635}, {"measurement": "Digested", "setting": "[1]; 1%", "value": 8134}, {"measurement": "Peptide", "setting": "[1]; 1%", "value": 1275}, {"measurement": "Undigested", "setting": "[1]; 1%", "value": 284843}, {"measurement": "Digested", "setting": "[2]; 0.1%", "value": 1284656}, {"measurement": "Peptide", "setting": "[2]; 0.1%", "value": 5961}, {"measurement": "Undigested", "setting": "[2]; 0.1%", "value": 3123245}, {"measurement": "Digested", "setting": "[2]; 0.2%", "value": 12332}, {"measurement": "Peptide", "setting": "[2]; 0.2%", "value": 480241}, {"measurement": "Undigested", "setting": "[2]; 0.2%", "value": 29962}, {"measurement": "Digested", "setting": "[2]; 0.5%", "value": 114517}, {"measurement": "Peptide", "setting": "[2]; 0.5%", "value": 361200}, {"measurement": "Undigested", "setting": "[2]; 0.5%", "value": 499326}, {"measurement": "Digested", "setting": "[2]; 1%", "value": 124131}, {"measurement": "Peptide", "setting": "[2]; 1%", "value": 239833}, {"measurement": "Undigested", "setting": "[2]; 1%", "value": 1149062}]}, {"smiles": "OCC(F)(F)F", "note": "[TFE]", "values": [{"measurement": "Digested", "setting": "[1]; 5%", "value": 513982}, {"measurement": "Peptide", "setting": "[1]; 5%", "value": 208344}, {"measurement": "Undigested", "setting": "[1]; 5%", "value": 4502764}, {"measurement": "Digested", "setting": "[1]; 10%", "value": 95904}, {"measurement": "Peptide", "setting": "[1]; 10%", "value": 39996}, {"measurement": "Undigested", "setting": "[1]; 10%", "value": 5112793}, {"measurement": "Digested", "setting": "[1]; 15%", "value": 40955}, {"measurement": "Peptide", "setting": "[1]; 15%", "value": 18047}, {"measurement": "Undigested", "setting": "[1]; 15%", "value": 5055881}, {"measurement": "Digested", "setting": "[1]; 20%", "value": 26014}, {"measurement": "Peptide", "setting": "[1]; 20%", "value": 9756}, {"measurement": "Undigested", "setting": "[1]; 20%", "value": 5626809}, {"measurement": "Digested", "setting": "[2]; 5%", "value": 710737}, {"measurement": "Peptide", "setting": "[2]; 5%", "value": 271046}, {"measurement": "Undigested", "setting": "[2]; 5%", "value": 4417966}, {"measurement": "Digested", "setting": "[2]; 10%", "value": 512715}, {"measurement": "Peptide", "setting": "[2]; 10%", "value": 201962}, {"measurement": "Undigested", "setting": "[2]; 10%", "value": 4499811}, {"measurement": "Digested", "setting": "[2]; 15%", "value": 571716}, {"measurement": "Peptide", "setting": "[2]; 15%", "value": 224520}, {"measurement": "Undigested", "setting": "[2]; 15%", "value": 4785656}, {"measurement": "Digested", "setting": "[2]; 20%", "value": 661078}, {"measurement": "Peptide", "setting": "[2]; 20%", "value": 253234}, {"measurement": "Undigested", "setting": "[2]; 20%", "value": 4907160}]}, {"smiles": "NC(CO)(CO)CO", "note": "[Tris]", "values": [{"measurement": "Digested", "setting": "[1]; 0.05M", "value": 2479332}, {"measurement": "Undigested", "setting": "[1]; 0.05M", "value": 893529}, {"measurement": "Digested", "setting": "[1]; 0.1M", "value": 2540889}, {"measurement": "Undigested", "setting": "[1]; 0.1M", "value": 990996}, {"measurement": "Digested", "setting": "[1]; 0.25M", "value": 2440181}, {"measurement": "Undigested", "setting": "[1]; 0.25M", "value": 1291934}, {"measurement": "Digested", "setting": "[1]; 0.5M", "value": 2205308}, {"measurement": "Peptide", "setting": "[1]; 0.5M", "value": 879474}, {"measurement": "Undigested", "setting": "[1]; 0.5M", "value": 1490447}, {"measurement": "Digested", "setting": "[1]; 1M", "value": 1923103}, {"measurement": "Peptide", "setting": "[1]; 1M", "value": 745060}, {"measurement": "Undigested", "setting": "[1]; 1M", "value": 2177969}, {"measurement": "Digested", "setting": "[2]; 0.05M", "value": 1995427}, {"measurement": "Peptide", "setting": "[2]; 0.05M", "value": 860551}, {"measurement": "Undigested", "setting": "[2]; 0.05M", "value": 3125626}, {"measurement": "Digested", "setting": "[2]; 0.1M", "value": 2524942}, {"measurement": "Peptide", "setting": "[2]; 0.1M", "value": 1101647}, {"measurement": "Undigested", "setting": "[2]; 0.1M", "value": 2122289}, {"measurement": "Digested", "setting": "[2]; 0.25M", "value": 3462464}, {"measurement": "Peptide", "setting": "[2]; 0.25M", "value": 1564913}, {"measurement": "Undigested", "setting": "[2]; 0.25M", "value": 997441}, {"measurement": "Digested", "setting": "[2]; 0.5M", "value": 3218135}, {"measurement": "Peptide", "setting": "[2]; 0.5M", "value": 1297337}, {"measurement": "Undigested", "setting": "[2]; 0.5M", "value": 780101}, {"measurement": "Digested", "setting": "[2]; 1M", "value": 3458079}, {"measurement": "Peptide", "setting": "[2]; 1M", "value": 1431917}, {"measurement": "Undigested", "setting": "[2]; 1M", "value": 1156801}]}, {"smiles": "NC(N)=O", "note": "[Urea]", "values": [{"measurement": "Digested", "setting": "[1]; 0.5M", "value": 1816572}, {"measurement": "Peptide", "setting": "[1]; 0.5M", "value": 715848}, {"measurement": "Undigested", "setting": "[1]; 0.5M", "value": 2285541}, {"measurement": "Digested", "setting": "[1]; 1M", "value": 1448998}, {"measurement": "Peptide", "setting": "[1]; 1M", "value": 555954}, {"measurement": "Undigested", "setting": "[1]; 1M", "value": 2812910}, {"measurement": "Digested", "setting": "[1]; 2M", "value": 905391}, {"measurement": "Peptide", "setting": "[1]; 2M", "value": 349854}, {"measurement": "Undigested", "setting": "[1]; 2M", "value": 3812799}, {"measurement": "Digested", "setting": "[1]; 4M", "value": 285873}, {"measurement": "Peptide", "setting": "[1]; 4M", "value": 104200}, {"measurement": "Undigested", "setting": "[1]; 4M", "value": 4609299}, {"measurement": "Digested", "setting": "[1]; 6M", "value": 139668}, {"measurement": "Peptide", "setting": "[1]; 6M", "value": 49088}, {"measurement": "Undigested", "setting": "[1]; 6M", "value": 4675789}, {"measurement": "Digested", "setting": "[1]; 8M", "value": 43865}, {"measurement": "Peptide", "setting": "[1]; 8M", "value": 13979}, {"measurement": "Undigested", "setting": "[1]; 8M", "value": 4151508}, {"measurement": "Digested", "setting": "[2]; 0.5M", "value": 1220686}, {"measurement": "Peptide", "setting": "[2]; 0.5M", "value": 538728}, {"measurement": "Undigested", "setting": "[2]; 0.5M", "value": 3763696}, {"measurement": "Digested", "setting": "[2]; 1M", "value": 1145096}, {"measurement": "Peptide", "setting": "[2]; 1M", "value": 511139}, {"measurement": "Undigested", "setting": "[2]; 1M", "value": 2972094}, {"measurement": "Digested", "setting": "[2]; 2M", "value": 1106227}, {"measurement": "Peptide", "setting": "[2]; 2M", "value": 490181}, {"measurement": "Undigested", "setting": "[2]; 2M", "value": 3034093}, {"measurement": "Digested", "setting": "[2]; 4M", "value": 860501}, {"measurement": "Peptide", "setting": "[2]; 4M", "value": 389932}, {"measurement": "Undigested", "setting": "[2]; 4M", "value": 2877527}, {"measurement": "Digested", "setting": "[2]; 6M", "value": 529552}, {"measurement": "Peptide", "setting": "[2]; 6M", "value": 301136}, {"measurement": "Undigested", "setting": "[2]; 6M", "value": 3250299}, {"measurement": "Digested", "setting": "[2]; 8M", "value": 156492}, {"measurement": "Peptide", "setting": "[2]; 8M", "value": 69027}, {"measurement": "Undigested", "setting": "[2]; 8M", "value": 2197015}]}]}
